{"source": "patent US20220193270A1", "about": "“METHOD FOR ENHANCING TUMOR GROWTH” (MINERVA BIOTECHNOLOGIES CORPORATION, priority 2013, published 2022)", "key": {"[1]": {"system": "MUC1-positive T47D breast cancer cells", "assay": "RT-PCR of cancer stem cell markers and chromatin rearrangement factors in T47D cells cultured in serum-free minimal media with agent", "assay_type": "cell-based, human", "procedure": "(§1) Example 3: Agents that are able to maintain stem cells in the naïve state transform cancer cells into cancer stem cells wherein only a small number of cells are required for engraftment. Cancer cells were cultured according to standard practice. In the controls, the cancer cells were cultured in their normal media: RPMI for T47D breast cancer cells, DU145 and PC3 prostate cancer cells. However, the test agents, recombinant proteins human NME1 dimers, bacterial HSP593 NME1 dimers, human NME7-AB and 2i, were added to a serum-free minimal media to eliminate potential interference from the many growth factors and cytokines in serum.\nSerum-free Minimal Media 500 mL includes the following components: 394 mL DMEM/F12, GlutaMAX; 100 mL Knockout™ Serum Replacement; 5.0 mL 100×MEM Non-essential Amino Acid Solution; 0.9 mL P-mercaptoethanol, 55 mM stock.\n(§2) To this serum-free minimal media, rhNME1 (aka NM23) was added to a final concentration of 8 nM, or bacterial HSP593 recombinant NME1 was added to a final concentration of 8 nM, or rhNME7-AB was added to a final concentration of 4 nM, or 2i inhibitors, PD0325901 and CHIR99021, which inhibit the MAP kinase pathway and GSK3, respectively, were added to a final concentration of 3 μM and 1 μM.\nWhen a rho kinase inhibitor, “Ri” or “ROCi”, was added it was Y27632 from Stemgent (Cambridge, Mass.), added immediately before use to a final concentration of 10 uM.\nExample 3a: Breast cancer T47D cells were cultured either in the traditional RPMI growth media or in a minimal stem cell media to which was added either human NME1 dimers, also known as NM23-H1, bacterial HSP593 NME1 dimers, human NME7-AB, or kinase inhibitors known as ‘2i’. What these agents have in common is that they are each able to promote the growth of stem cells in the naive state or are able to revert primed state stem cells to the less mature naive state. We observed that some of the T47D cancer cells cultured in any of these agents became non-adherent. These ‘floaters’ were also morphologically different. The addition of a rho kinase inhibitor, called ‘Ri’ or ‘ROCP here caused most of the cells to remain attached to the surface. […] When a rho kinase inhibitor is added, all the cells remain attached but the RT-PCR measurements indicate that the resultant measure is of a mixture of the cells that were transformed and those that were not or were not yet.\nExample 3c: In this example, the effect of ‘2i’ inhibitors on cancer cells was tested. Recall that 2i is the name given to 2 small molecules, […] that inhibit the MAP kinase pathway and GSK3 respectively. […] In this experiment, we cultured MUCl-positive T47D breast cancer cells in minimal media to which was added either 2i or NME7-AB."}, "[2]": {"system": "DU145 MUC1-positive prostate cancer cells", "assay": "RT-PCR of cancer stem cell markers in DU145 cells cultured with agent", "assay_type": "cell-based, human", "settings": "after 9-10 passages; FIG. 11b", "procedure": "as §1, §2\nExample 3b: Prostate cancer cells were also cultured as described above with either human NME1 dimers, bacterial NME1 dimers, NME7-AB, or 2i inhibitors. […] Thus, the RT-PCR measurements of the cancer stem cell markers are lower than that of the T47D cells, which could be explained by it being the measure of transformed cells and non-transformed cells. In the case of breast cancer cells, we were able to isolate the fully transformed cancer stem cells by collecting the floating cells, but were not able to do so here. DU145 MUC1-positive prostate cancer cells were cultured in RPMI media as a control and in minimal media to which was added recombinant human NME1/NM23 dimers, bacterial HSP593 dimers, or human NME7-AB. […] There was about a 2-8-fold increase in OCT4, MUC1 and CDH1/E-cadherin. However, after serial passaging under these same culture conditions, the increases in expression of cancer stem cell markers became more pronounced. We reasoned that serial passaging allowed more time for cells to transform since we could not rapidly collect floating cells."}, "[3]": {"system": "PC3 MUC1-negative prostate cancer cells", "assay": "RT-PCR of stem cell markers in PC3 cells cultured with agent", "assay_type": "cell-based, human", "procedure": "as §1, §2\nPC3 MUCl-negative prostate cancer cells were also tested for their ability to transform into cancer stem cells when cultured in agents that are able to maintain stem cells in the naïve state. PC3 cells were cultured as described above with either human NME1 dimers, bacterial NME1 dimers or NME7-AB. […] Thus, the RT-PCR measurements of the cancer stem cell markers may be lower because measurements will be the average of transformed cells and non-transformed cells."}, "[4]": {"system": "human fibroblasts", "assay": "RT-PCR of stem/cancer markers and chromatin rearrangement factors in fibroblasts cultured with NME proteins", "assay_type": "cell-based", "settings": "after 15-20 days in culture", "procedure": "Agents that are able to maintain stem cells in the naive state are also able to transform somatic cells to a cancer or stem-like state. Human NME1 dimer or human NME7 are able to make somatic cells revert to a less mature state, expressing stem and cancer cell markers. Bacterial NME from HSP 593 was tested alongside the human homologs to determine if it could mimic their function by being able to revert somatic cells to a cancer-like state. Human fibroblasts were cultured in a serum-free minimal base media with either HSP 593, human NME1 dimers or human NME7-AB as the only growth factor or cytokine. […] Recalling that stem cells and metastatic cancer cells can grow anchorage-independently, we repeated the experiments but this time a rho kinase inhibitor was added to one set of cells to make the cells adhere to the surface. […] Photos of the experiment show the dramatic change in morphology as the fibroblasts revert when cultured in human or bacterial NME, FIGS. 52-59. The relative order of efficiency of reverting somatic cells to a less mature state was NME7>NME1 dimers >NME1 bacterial. […] However, Bacterial NME from HSP 593 apparently up-regulates expression of human NME7 and NME1.\nExample 3d: In this example, fibroblast cells were cultured in the presence of recombinant human NME1/NM23 dimers, bacterial HSP593 NME1 dimers or NME7-AB. The fibroblasts were cultured in their normal media as a control, which is for 500 mL, 445 mL DMEM high glucose base media, 5 mL GlutaMAX and 50 mL of fetal bovine serum (FBS). After 15-20 days in culture with either NME1/NM23 dimers, bacterial HSP593 NME1 dimers or NME7-AB, the morphology of the cells completely changed so that they no longer were recognizable as fibroblasts. […] Here, ‘minus ROCi’ refers to cells that became non-adherent and floated off the surface."}, "[5]": {"system": "Human HES-3 embryonic stem cells", "assay": "Human embryonic stem cell culture with NME protein as only growth factor", "assay_type": "cell-based", "settings": "serum-free minimal base media, agent as the only growth factor or cytokine", "text": "Factors that are able to maintain stem cells in the naive state are also able to transform cells to a cancer-like or stem-like state and are also able to transform cancer cells to a cancer stem cell state or a more metastatic state. Herein, we have shown several examples of bacterial NME1 being able to function like human NME1 dimers, which are also able to function like NME7 or NME7-AB. However, the primary example that these factors function in a very similar way is their ability to promote the growth of stem cells, inhibit differentiation and maintain them in the naive state. […] Human HES-3 embryonic stem cells were cultured in a serum-free minimal base media with either HSP 593, human NME1 or NME7-dimers or human NME7-AB as the only growth factor or cytokine. […] Several examples have been presented here that indicate that contacting cells with an agent or agents that are able to revert stem cells from the primed state to the less mature naive state are also able to revert a wide variety of cell types to a less mature state: somatic cells to stem or progenitor cells or cancer cells to more metastatic state also called cancer stem cell state. Therefore, the invention is not meant to be limited to a specific cell type or a specific cancer cell type."}}, "data": [{"substance": "NME1 dimers: recombinant human NM23, also called NME1, dimers that bear the 5120G mutation that stabilizes dimers", "values": [{"measurement": "expression of CDH1 (E-cadherin), MUC1 and NANOG", "setting": "[1]; FIG. 7", "result": "increases"}, {"measurement": "expression of CXCR4, SOX2 and OCT4", "setting": "[1]; FIG. 7", "result": "dramatic increases"}, {"measurement": "expression of stem cell markers KLF2 and KLF4", "setting": "[1]; FIG. 7", "result": "modest increases"}, {"measurement": "expression of MBD3, CHD4, BRD4 and JMJD6", "setting": "[1]; cancer cells cultured in agent, FIG. 13, FIG. 14", "result": "naturally suppressed"}, {"measurement": "expression of NANOG and OCT4", "setting": "[2]", "result": "significant increases"}, {"measurement": "increase in the expression of CDH1/E-cadherin", "setting": "[2]", "result": 6, "unit": "fold"}, {"measurement": "expression of stem cell markers SOX2, OCT4 and NANOG", "setting": "[3]; after passage in agent, FIG. 12a", "result": "modest increases"}, {"measurement": "expression of cancer stem cell or stem cell markers", "setting": "[3]; serial passaging in the media, FIG. 12b", "result": "decreased"}, {"measurement": "expression of stem cell marker genes OCT4 and NANOG", "setting": "[4]; FIG. 15", "result": "greatly increased expression"}, {"measurement": "expression of BRD4, JMJD6, MBD3 and CHD4", "setting": "[4]; FIG. 16", "result": "decreased expression"}, {"measurement": "support of human stem cell growth", "setting": "[5]", "result": "fully supported human stem cell growth"}]}]}
